The source of these data is EP3521435A1, “A HIGH STRINGENCY SELECTION SYSTEM FOR PROTEIN EXPRESSION IN PROLINE-AUXOTROPHIC CELLS” (Bayer AG, priority 2018, dated 2019).

Holding throughout (type): cell-based, Chinese hamster
Assay [1] deals with CHO-K1 cells. In words: Flow cytometric analysis of GFP expression (MFI, high fluorescing cells) in stably selected cell populations. How it is done:
(§1) To efficiently test the impact of different procedures on improving selection stringency, experimental testing in stable cell populations was performed. As test molecules, enhanced green fluorescent protein (GFP) as well as a human IgG1 were chosen. CHO-K1 cells adapted to growth in suspension in defined medium were obtained from SAFC and cultivated in EX-CELL CD CHO Fusion medium (SAFC 14365C). Custom-made EX-CELL CD CHO Fusion medium without L-Proline (Pro) and without L-Ornithine (Orn) ("proline-free medium") was obtained from SAFC. The expression vector system was based on modified versions of "CET 1019 AS-puro-SceI" and "CET 1019 AD-puro-SceI" for GFP and human IgG1, respectively, from Merck-Millipore, containing the Puromycin selection marker (Puromycin N-acetyl-transferase) known to exert a high selection stringency. To minimize variations in cell populations derived from using different transfections or different vectors, the first series of experiments were conducted using vectors into which a P5CS expression cassette was cloned upstream of a UCOE element, in addition to the Puromycin selection marker present downstream of a gene of interest. This way, it was possible to pool different transfections using the same vector to obtain a common starting point, and split the mixture according to different selection conditions, minimizing any variations that are not due to selection conditions themselves. Expression of long and short isoform of murine P5CS (Protein: Delta-1-pyrroline-5-carboxylate synthase; Gene: Aldh18a1; UniProtKB accession number: Q9Z110-1 & Q9Z110-2) was driven by a SV40 promoter. A SV40 polyadenylation sequence was used at the 3' end of the gene. More details can be found in Table 1. Typically, CHO cells were cultivated in EX-CELL CD CHO Fusion medium containing 6 mM GlutaMAX (Thermo Fisher, 35050-38) ("CD-Fusion medium") at 37 °C with 5% CO2. Cells were grown to logarithmic phase under shaking conditions for transfections. 1e7 cells/cuvette were transfected using nucleofection (Amaxa Nucleofector II, following the manufacturer's recommendations) with 5 µg of linearized DNA. After transfection, cells were taken up in 1 ml medium and transferred into 1 well of a 6 well microtiter plate (MTP) already containing 1 ml medium. The cells were incubated for 24 h without shaking, after which 9 ml medium were added and cells were washed (either in standard or proline-free medium). Multiple transfections were pooled, if applicable. Cells were adjusted to 2e5 viable cells/ml and 10 ml were transferred to T-25 flasks. Reference cell populations were selected using 10 µg/ml Puromycin in CD-Fusion medium. For P5CS-based selection, EX-CELL CD CHO Fusion medium (custom-made, SAFC) containing 6 mM GlutaMAX without proline and without ornithine was used ("proline-free" or "CD-Fusion w/o Pro" medium), with or without additional selection pressure.
(§2) Cell viability of the different populations was monitored over time. As soon as cell populations appeared to recover from selection pressure, cells were transferred to Shake Flask or TubeSpins for expansion in suspension under shaking conditions. Subsequently, stable cell populations transfected with IgG were seeded at 2e5 viable cells/ml for batch fermentation without selection pressure (i.e. standard CD-Fusion medium containing proline and no other selective agents). The cells were cultivated for 5-10 days, viable cell densities and productivity were monitored over time. IgG titers were determined using Poros A-HPLC method. Typically, final batch titers were recorded at a time point at which majority of cultures had around 70% viability. Stable cell populations transfected with GFP vector were subjected to analysis by flow cytometry using Guava easyCyte 8HT Benchtop Flow Cytometer (Millipore). 250 µl of cell culture were transferred to 96 MTP and washed with PBS. Dead cells were excluded from analysis using propidium iodide (PI). […]
On the technique in general: A flow cytometer gives signals particle by particle.

For assay [2], the system named is CHO-K1 cells. In words: Cell viability post-transfection of transfected cell populations under selection conditions. The settings on record: for concentration at which recovery kinetics were affected: Table 8. The procedure:
as §1, §2

The test system of assay [3] is CHO-K1 cells. In words: Batch fermentation in shake flasks of human IgG1 expressing stable cell populations (Poros A-HPLC titer, viable cell density, viability). The following applies: human IgG1, pJF1577, non-selecting conditions. How it is done: as §1, §2
Where [4] appears, read: day 20 post-transfection, pJF1556, CD-Fusion w/o Pro + 0.1 mM A2C.
Where [5] appears, read: day 20 post-transfection, pJF1556, CD-Fusion w/o Pro + 0.1 mM A2C + 10 µg/ml Puromycin.
[6] abbreviates: day 20 post-transfection, pJF1556, CD-Fusion w/o Pro + 0.25 mM A2C.

Some results are limits rather than exact numbers.

Regarding `O=C(O)[C@@H]1CCN1` [A2C, L-Azetidine-2-carboxylic acid], the “Frequency of high fluorescing cells” value with CHO-K1 cells [1] (setting [4]) was determined as 7.1%; with CHO-K1 cells [1] (setting [5]), 13.6%; with CHO-K1 cells [1] (setting [6]), 7.1%. For the same molecule, the “Median Fluorescence Intensity (MFI) (yellow)” value in the assay on CHO-K1 cells [1] (setting [4]) came out at 5743; with CHO-K1 cells [1] (setting [5]), 9448; in the assay on CHO-K1 cells [1] (setting [6]), 7578. Moreover, the “Viability on day 13 post-transfection” value in the assay with CHO-K1 cells [2] (MOCK, CD-Fusion w/o Pro + 0.5 mM A2C + 10 µg/ml Puromycin) was determined as 15%; with CHO-K1 cells [2] (pJF1556, CD-Fusion w/o Pro + 0.1 mM A2C) it was 85%; in the assay with CHO-K1 cells [2] (pJF1556, CD-Fusion w/o Pro + 0.1 mM A2C + 10 µg/ml Puromycin) it was 62%; in the assay on CHO-K1 cells [2] (pJF1556, CD-Fusion w/o Pro + 0.25 mM A2C) it was 70%; with CHO-K1 cells [2] (pJF1556, CD-Fusion w/o Pro + 0.25 mM A2C + 10 µg/ml Puromycin), 22%; in the assay with CHO-K1 cells [2] (pJF1556, CD-Fusion w/o Pro + 0.5 mM A2C), 21%. Further, the “Viability on day 13 post-transfection” value in the assay on CHO-K1 cells [2] (pJF1556, CD-Fusion w/o Pro + 0.5 mM A2C + 10 µg/ml Puromycin) was 21%. Besides, the “Batch titer day 7” value in the assay with CHO-K1 cells [3] (selected in CD-Fusion w/o Pro + 0.1 mM A2C + 10 µg/ml Puromycin) is 82 mg/L; with CHO-K1 cells [3] (selected in CD-Fusion w/o Pro + 0.1 mM A2C) it was 135 mg/L; in the assay with CHO-K1 cells [3] (selected in CD-Fusion w/o Pro + 0.25 mM A2C + 10 µg/ml Puromycin), 145 mg/L; with CHO-K1 cells [3] (selected in CD-Fusion w/o Pro + 0.25 mM A2C) it was 166 mg/L; in the assay with CHO-K1 cells [3] (selected in CD-Fusion w/o Pro + 0.5 mM A2C + 10 µg/ml Puromycin) it was 34 mg/L; in the assay with CHO-K1 cells [3] (selected in CD-Fusion w/o Pro + 0.5 mM A2C), 166 mg/L.
In the case of `O=C(O)C1NCCS1` (centres unmarked) [Thiazolidine-2-carboxylic acid], the “Frequency of high fluorescing cells” value came out at 4.9% in the assay on CHO-K1 cells [1] (day 15 post-transfection, pJF1555, CD-Fusion w/o Pro + 0.1 mM Thiazolidine-2-carboxylic acid); 2.3% in the assay with CHO-K1 cells [1] (day 15 post-transfection, pJF1555, CD-Fusion w/o Pro + 0.5 mM Thiazolidine-2-carboxylic acid); 0.0% with CHO-K1 cells [1] (day 15 post-transfection, pJF1555, CD-Fusion w/o Pro + 1 mM Thiazolidine-2-carboxylic acid); 0.0% with CHO-K1 cells [1] (day 15 post-transfection, pJF1555, CD-Fusion w/o Pro + 2.5 mM Thiazolidine-2-carboxylic acid); 0.0% in the assay on CHO-K1 cells [1] (day 15 post-transfection, pJF1555, CD-Fusion w/o Pro + 10 mM Thiazolidine-2-carboxylic acid). Besides, the “Viability on day 12 post-transfection” value came to 87% in the assay on CHO-K1 cells [2] (pJF1555, CD-Fusion w/o Pro + 0.1 mM Thiazolidine-2-carboxylic acid); 78% in the assay on CHO-K1 cells [2] (pJF1555, CD-Fusion w/o Pro + 0.5 mM Thiazolidine-2-carboxylic acid); 11% with CHO-K1 cells [2] (pJF1555, CD-Fusion w/o Pro + 1 mM Thiazolidine-2-carboxylic acid); 15% in the assay on CHO-K1 cells [2] (pJF1555, CD-Fusion w/o Pro + 2.5 mM Thiazolidine-2-carboxylic acid); 16% in the assay with CHO-K1 cells [2] (pJF1555, CD-Fusion w/o Pro + 10 mM Thiazolidine-2-carboxylic acid). The “concentration at which recovery kinetics were affected” value in the assay on CHO-K1 cells [2] (pJF1555, proline-free medium) was 0.5 to 1 mM.
Take `O=C(O)[C@@H]1C[C@H](O)CN1` [cis-4-Hydroxy-L-Proline]: the “Frequency of high fluorescing cells” value in the assay with CHO-K1 cells [1] (day 15 post-transfection, pJF1555, CD-Fusion w/o Pro + 0.25 mM cis-4-Hydroxy-L-Proline) was determined as 3.3%; with CHO-K1 cells [1] (day 15 post-transfection, pJF1555, CD-Fusion w/o Pro + 0.5 mM cis-4-Hydroxy-L-Proline) it was 1.7%; in the assay on CHO-K1 cells [1] (day 15 post-transfection, pJF1555, CD-Fusion w/o Pro + 2.5 mM cis-4-Hydroxy-L-Proline), 1.4%; with CHO-K1 cells [1] (day 15 post-transfection, pJF1555, CD-Fusion w/o Pro + 5 mM cis-4-Hydroxy-L-Proline), 0.0%; with CHO-K1 cells [1] (day 15 post-transfection, pJF1555, CD-Fusion w/o Pro + 10 mM cis-4-Hydroxy-L-Proline), 0.0%. In addition, the “Viability on day 12 post-transfection” value with CHO-K1 cells [2] (pJF1555, CD-Fusion w/o Pro + 0.25 mM cis-4-Hydroxy-L-Proline) is reported as 89%; with CHO-K1 cells [2] (pJF1555, CD-Fusion w/o Pro + 0.5 mM cis-4-Hydroxy-L-Proline), 88%; in the assay with CHO-K1 cells [2] (pJF1555, CD-Fusion w/o Pro + 1 mM cis-4-Hydroxy-L-Proline), 65%; in the assay on CHO-K1 cells [2] (pJF1555, CD-Fusion w/o Pro + 2.5 mM cis-4-Hydroxy-L-Proline), 13%; with CHO-K1 cells [2] (pJF1555, CD-Fusion w/o Pro + 5 mM cis-4-Hydroxy-L-Proline), 13%; with CHO-K1 cells [2] (pJF1555, CD-Fusion w/o Pro + 10 mM cis-4-Hydroxy-L-Proline), 20%. The “concentration at which recovery kinetics were affected” value with CHO-K1 cells [2] (pJF1555, proline-free medium) is on record as at least 1 mM.
Consider `O=C(O)[C@@H]1C[C@@H](O)CN1` [trans-4-Hydroxy-L-Proline], for which the “Frequency of high fluorescing cells” value in the assay with CHO-K1 cells [1] (day 15 post-transfection, pJF1555, CD-Fusion w/o Pro + 5 mM trans-4-Hydroxy-L-Proline) is given as 2.6%; in the assay with CHO-K1 cells [1] (day 15 post-transfection, pJF1555, CD-Fusion w/o Pro + 10 mM trans-4-Hydroxy-L-Proline) it was 2.6%. For the same molecule, the “Viability on day 12 post-transfection” value with CHO-K1 cells [2] (pJF1555, CD-Fusion w/o Pro + 5 mM trans-4-Hydroxy-L-Proline) is 84%; in the assay with CHO-K1 cells [2] (pJF1555, CD-Fusion w/o Pro + 10 mM trans-4-Hydroxy-L-Proline) it was 84%. For the same molecule, the selection pressure result with CHO-K1 cells [2] (up to 10 mM, pJF1555, proline-free medium) is “no increased selection pressure observable”.
